Source: patent US7723112B2, “Compositions and methods for treating and diagnosing cancer” (The Regents of the University of Michigan, priority 2005, dated 2010)
Like-named read-outs stand apart in the source and are kept apart here.

Tested on: UM-C4 tumor cells
Settings: monitored four months
Description: Mice were monitored for tumor growth over a period of four months and scored as either positive or negative for tumor growth such that Poisson statistics could be done to assess TG cell frequency among the input population.

`O=P1(N(CCCl)CCCl)NCCCO1` (stereo not shown) [CPA, Cyclophosphamide] was tested, and the “mice developing tumors / mice injected” value (input of 56 bulk tumor cells from CPA-treated tumors) was 4/8, the “mice developing tumors / mice injected” value (input of 167 bulk tumor cells from CPA-treated tumors) was 5/8 and the “mice developing tumors / mice injected” value (input of 500 bulk tumor cells from CPA-treated tumors) was 9/9. For the same compound, the mice developing tumors (input of 1,500 bulk tumor cells from CPA-treated tumors) was “All eight”.
